Experimental data reported in article PMC6271975, “Structure-Activity Relationship Study of Sesquiterpene Lactones and Their Semi-Synthetic Amino Derivatives as Potential Antitrypanosomal Products” (Molecules, 2014).
“Also recorded” adds a separate entry of the source. Counter-ions that a name gives are not always drawn. Like-named read-outs stand apart in the source and are kept apart here.

How the values were obtained:
[1] = tested on: T. b. rhodesiense STIB900; design: method as in PMID 22331812, PMID 24080104; conditions: intraperitoneal, 10 mg/kg/b.i.d. for four consecutive days; cited from earlier work
[2] = tested on: T. b. rhodesiense STIB900; assay: Acute mouse sleeping sickness model (STIB 900); assay type: in vivo, NMRI mice; conditions: for signs of toxicity in mice: acute mouse model; for survival: po, average of all mice, untreated controls euthanized at day 10 post infection
Method: This model mimics the first stage of the human African trypanosomiasis. Adult female NMRI mice were purchased from Janvier (St. Berthevin, France). They weighed between 20 and 25 g at the beginning of the study and were kept under standard conditions at 22 °C and 60%–70% humidity in macrolon type III cages with food pellets and water ad libitum. […] The samples were first dissolved in 100% DMSO, followed by addition of distilled H2O to a final DMSO concentration of 10%. For determination of the in vivo antitrypanosomal activity, mice were infected intraperitoneally with 1 × 10^4 STIB900 bloodstream forms. Experimental groups of four mice were treated orally once a day on four consecutive days from day 3 to day 6 post infection. A control group of four mice was infected, but remained untreated. The determination of the parasitaemia was done on day 7 post infection. […] Five μL of this mixture were transferred to a glass slide and covered with an 18 × 18 mm cover slide. The sample was examined under a light microscope (200-fold magnification) and parasites were counted in 3 of the 16 squares of the grid.

[3] = tested on: rat skeletal myoblasts (L6-cells); design: method as in PMID 22331812, PMID 24080104, PMID 21624443, PMID 22396915; conditions: cytotoxicity; previously reported compounds included for comparison; cited from earlier work
[4] = tested on: T. b. rhodesiense STIB 900 bloodstream forms; design: method as in PMID 22331812, PMID 24080104, PMID 21624443, PMID 22396915; conditions: cited from earlier work
[5] = tested on: T. b. rhodesiense STIB 900 bloodstream forms; assay: In vitro antitrypanosomal Alamar Blue assay; assay type: cell-based, Trypanosoma brucei rhodesiense; conditions: Trypanosoma brucei; 70 h incubation; average of three independent assays; read-out: T. brucei STIB 900 IC50
Method: Evaluation of in vitro antiprotozoal activity against T. b. rhodesiense was done using the Alamar Blue assay to determine IC50s as previously described. Serial threefold dilution were prepared in 96-well micro titre plates, and 4000 T. b. rhodesiense STIB 900 bloodstream forms in 50 μL were added to each well except for the negative controls. Melarsoprol (Arsobal®, purity > 95%, Sanofi-Aventis, Meyrin, Switzerland) was used as reference drugs. […] The IC50 values were calculated from the sigmoidal growth inhibition curves using Softmax Pro software (Molecular Devices).

[6] = tested on: rat skeletal myoblasts (L6-cells); assay: cells; assay type: cell-based; conditions: Rattus norvegicus, L6; cytotoxicity; 70 h incubation; average of three independent assays; read-out: L6 cells IC50
Method: The cytotoxicity assay was performed with rat skeletal myoblasts (L6-cells) seeded in 100 μL RPMI 1640 in 96-well micro titre plates, using the Alamar Blue assay described above. After 24 h the medium was removed and replaced by 100 μL of fresh RPMI 1640 with serial threefold drug dilution. Podophyllotoxin (purity > 95%, Sigma-Aldrich) was used as a reference drug. After 70 h of incubation under a humidified 5% CO2 atmosphere, 10 μL of the Alamar blue marker (see above) was added to all wells. The plates were incubated for an additional 2 h. A Spectramax Gemini XS micro plate fluorescence reader (Molecular Devices) was used to read the plates using an excitation wavelength of 536 nm and an emission wavelength of 588 nm. The IC50s were calculated from the sigmoidal growth inhibition curves using Softmax Pro software (Molecular Devices).

SMILES: C=C(CO)C(=O)O[C@H]1CC(=C)[C@@H]2C[C@H](O)C(=C)[C@@H]2[C@H]2OC(=O)C(=C)[C@@H]21 [Compound 1, Cynaropicrin]
- cure of mice [1]: not able to cure the mice
- parasitemia [1]: parasitemia was decreased over several days
- signs of toxicity in mice ([2]; oral administration): euthanized on day 10 post infection due to obvious signs of cytotoxicity
- parasitemia on day 7 after infection ([2]; oral, 50 mg/kg body weight/day, four mice): reduced parasitemia
- survival ([2]; 4 × 50 mg/kg): 9.5 days
- IC50 [3]: 2.2 ± 0.3 µM
- SI (Selectivity Index) ([4]; IC50 against L6 cells divided by IC50 against STIB 900 strain, previously reported compounds): 7.8
- IC50 ([4]; previously reported compounds included for comparison, compound 9 tested once, read-out: T. brucei STIB 900 IC50): 0.3 ± 0.001 µM

SMILES: C=C(CO)C(=O)OC1CC(=C)C2CC(O)C(=C)C2C2OC(=O)C(CN(C)C)C12 (centres unmarked) [Compound 19, Cynaropicrin dimethylamine adduct hydrochloride]
- signs of toxicity in mice ([2]; oral administration): less signs of toxicity
- in vivo efficacy ([2]; oral administration, mean survival time versus control): no in vivo efficacy; also recorded: did not show any in vivo efficacy
- survival ([2]; 4 × 25 mg/kg): 8.5 days
- survival ([2]; 4 × 50 mg/kg): 10 days
- IC50 [5]: 0.5 ± 0.003 µM
- IC50 [6]: 5.2 ± 1.3 µM
